Consider four compounds from US12655107B2 (The United States of America, as represented by the …, priority 2018, dated 2026).

One data set concerns Huh7. In words: MTT cytotoxicity assay, Huh7. Format: cell-based, human. The note with it: 72 h, Table 1b. The procedure: (§1) Cytotoxicity Assays. […] The cells were incubated with the tested compounds for 72 hours in a five-dose assay ranging from 0.01 to 100 μM concentration. After drug treatments, MTT solution was added to test the percentage growth of tumor cells.
(§2) For the drug treatment experiments, the cancer cells were treated with the compounds (predissolved in DMSO) at a five-dose assay ranging from 0.01 to 100 μM concentration. […] After 4 h incubation, the formazan crystal formed in the well was dissolved with […] of DMSO for optical density reading at 570 nm. The GI50 value was calculated by nonlinear regression analysis (GraphPad Prism).
A general note: Formazan colour is commonly taken as a measure of viable cells.

A further data set deals with DU145. In words: MTT cytotoxicity assay, DU145. Type of data set: cell-based, human. The note with it: 72 h, Table 1b, read-out: GI50 (μM) DU145. The method, then: as §1
(§3) The compounds were incubated with the cells for 72 hours in a five-dose assay ranging from 0.01 to 100 μM concentration. At the end of the incubation, the MTT solution was added to test the percentage growth of tumor cells.
as §2

The next data set deals with T1, Top1 (Homo sapiens, UniProt P11387).
T1 sequence (P11387 1-765): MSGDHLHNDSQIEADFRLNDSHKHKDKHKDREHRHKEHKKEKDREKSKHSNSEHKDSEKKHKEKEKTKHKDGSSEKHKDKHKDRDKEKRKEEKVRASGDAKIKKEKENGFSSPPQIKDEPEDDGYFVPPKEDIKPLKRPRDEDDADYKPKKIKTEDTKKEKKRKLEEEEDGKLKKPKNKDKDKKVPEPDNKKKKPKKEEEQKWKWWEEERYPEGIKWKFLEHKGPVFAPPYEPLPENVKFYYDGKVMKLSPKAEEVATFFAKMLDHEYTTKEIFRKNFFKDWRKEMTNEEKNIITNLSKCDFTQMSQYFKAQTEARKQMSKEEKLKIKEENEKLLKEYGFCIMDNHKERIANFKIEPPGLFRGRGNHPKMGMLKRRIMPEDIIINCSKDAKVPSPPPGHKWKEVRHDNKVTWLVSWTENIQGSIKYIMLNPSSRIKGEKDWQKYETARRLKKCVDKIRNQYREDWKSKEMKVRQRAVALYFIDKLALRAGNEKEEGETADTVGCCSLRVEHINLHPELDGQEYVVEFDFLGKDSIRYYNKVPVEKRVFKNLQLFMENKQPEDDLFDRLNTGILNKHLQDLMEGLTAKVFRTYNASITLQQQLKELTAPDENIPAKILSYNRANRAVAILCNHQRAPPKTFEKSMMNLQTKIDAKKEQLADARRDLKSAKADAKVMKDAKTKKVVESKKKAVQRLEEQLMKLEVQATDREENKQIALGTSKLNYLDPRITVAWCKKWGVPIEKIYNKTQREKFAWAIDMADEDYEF
The data set can be described thus: Top1-mediated DNA cleavage assay. Format: biochemical. The note with it: semi-quantitative score relative to CPT (1) at 1 μM; tested at 0.1-100 μM.

The subject of another data set is A549. In words: MTT cytotoxicity assay, A549. Format: cell-based, human. The note with it: 72 h, Table 1b, read-out: GI50 (μM) A549. The procedure:
as §1, §3, §2

A further data set has as its system HCT116. The data set can be described thus: MTT cytotoxicity assay, HCT116. Type of data set: cell-based, human. To be noted: 72 h, Table 1b, read-out: GI50 (μM) HCT116. The procedure: as §1, §3, §2
The next data set relates to CCRF-CEM. In words: MTT cytotoxicity assay, CCRF-CEM. Type of data set: cell-based, human. The note with it: 72 h, Table 1b. The method, then: as §1, §2
Data set [1] has as its target T2, Tdp1 (Homo sapiens, UniProt Q9NUW8). The data set can be described thus: Tdp1 inhibition fluorescence assay. Format: biochemical. To be noted: compounds at 100 μM. The procedure:
Tdp Inhibition. […] The compounds were tested at 100 μM concentration. […] Fluorescence assay. […] Tdp1 solution (20 μL/well, 0.02 μL purified Tdp1 (100 nM) in 10 mM Tris-HCl, pH 7.5, 50 mM KCL, I mM EDTA, 1 mM DTT) was dispensed into wells of a white 384-well plate (NEST). The tested compound solution in DMSO (5 μL) was pinned into assay plates and incubated at room temperature for 30 min. […] Tdp percentage inhibition of the tested compounds was calculated by comparing the rate of increase in fluorescence throughout time for the compound-treated wells to that of DMSO control wells.

Another data set deals with F10T dsDNA. The data set can be described thus: FRET melting assay. Format: binding. The note with it: compounds at 2 μM. The procedure: It was reported that nitidine can intercalate into double-stranded DNA (dsDNA) and inhibit Top1. […] The DNA intercalator 49 was used as positive control.
FRET melting assay was carried out on a real-time PCR apparatus as the following methods. […] In the experiment, the annealed oligonucleotide (final concentration of 0.4 μM) were incubated with the tested compounds (2 μM) in a total reaction volume of Tris-HCl buffer (10 mM, pH 7.4) containing 60 mM KCl at 37° C. for 0.5 h. Fluorescence melting curves were determined with a Roche LightCycler 2 real-time PCR machine with excitation at 470 nm and detection at 530 nm.

Data set [2] addresses T2, Tdp1. The note with it: reported in the background; cited from earlier work.
Another data set concerns HCT116 cells. In words: Flow cytometry apoptosis assay. Format: cell-based, human. The note with it: HCT116, 24 h, 0.5, 1 and 2 μM. The method, then: To evaluate the induction of apoptosis by 50, flow cytometry assays were performed in HCT116 cells.
The stained cells were analyzed by using flow cytometry (BD, FACSCalibur, USA) within I h. The experiments were repeated three times independently.
Background: Flow cytometry measures light scatter and fluorescence of single cells or particles in a stream.

The test system of data set [3] is γH2AX foci in HCT116 cells. In words: γH2AX detection by immunofluorescence. Format: cell-based, human. To be noted: HCT116, 1 μM, 3 h. The procedure:
To evaluate the DNA damaging effect of 50 in cancer cells, γH2AX foci were assessed by immunofluorescence microscopy in human […] HCT116 cells. After incubation with the compounds for 3 h, the HCT116 cells were stained with γH2AX antibodies.
HCT116 cells (2×10^4 cells/mL) were grown in culture medium and treated with compounds for 3 h at 37° C. […] Cells were permeabilized with 0.5% Triton X-100 in PBS at 0° C. for 30 min. Dish was blocked with 5% goat serum/PBS at 37° C. for 3 h. […] The dishes were again washed six times with blocking buffer. Digital images were recorded using an LSM710 microscope (Zeiss, Germany) and analyzed with ZEN software.

A further data set has as its system HCT116 xenograft. In words: In vivo antitumor activity, HCT116 xenograft. The note with it: HCT116 xenograft.
In another data set the test system is pBR322 DNA. The data set can be described thus: Top1-mediated unwinding assay. The note with it: supercoiled or relaxed pBR322 DNA, excess Top1, 19a up to 9 μM. Type of data set: biochemical. The method, then:
The binding of classical DNA intercalators between the base pair of circular DNA produce Top1-mediated unwinding effect, thereby antagonizing Top1-mediated DNA relaxation. […]. […] […]. The reaction mixture (20 μL) contained supercoiled or relaxed pBR322 DNA (0.5 μg), tested compounds and excess Top1 (10 units) in relaxing buffer (10 mM Tris, pH 7.5, 0.1 mM EDTA, 5 mM MgCl2, 50 mM KCl, 1 mM DTT, 15 μg/mL acetylated BSA). The DNA was incubated with the tested compounds at room temperature for 10 min prior to the addition of Top1. After being incubated for 30 min at 37° C., the reaction was terminated by the addition of […] loading buffer. The results were analyzed using 1% agarose gel in TAE buffer at 5 V/cm. The gel was stained with gel red and visualized with a UV transilluminator.

The nature of data set [4]: Pharmacokinetic study in rat. To be noted: SD rats, i.g. 5 mg/kg. The method, then: The SD rats were divided into two groups (n=3) and treated by intravenous injection (i.v.) at 1 mg/kg dose and intragastrical administration (i.g.) at 5 mg/kg dose, respectively.
A pharmacokinetic (PK) study in vivo of 50 was performed in Sprague-Dawley (SD) rats. The SD rats were randomly divided into two groups […] and treated by intravenous injection (iv) at 1 mg/kg dose or an intragastrical administration (ig) at 5 mg/kg dose, respectively. Plasma samples were collected postdosing and the concentration of 50 was measured.
Plasma samples (100 μL) were obtained after centrifugation for 10 min at 3000 rpm and stored at −20° C. until used for analysis. The plasma was detected through LC-MS-MS.

T2 sequence (Q9NUW8 whole entry): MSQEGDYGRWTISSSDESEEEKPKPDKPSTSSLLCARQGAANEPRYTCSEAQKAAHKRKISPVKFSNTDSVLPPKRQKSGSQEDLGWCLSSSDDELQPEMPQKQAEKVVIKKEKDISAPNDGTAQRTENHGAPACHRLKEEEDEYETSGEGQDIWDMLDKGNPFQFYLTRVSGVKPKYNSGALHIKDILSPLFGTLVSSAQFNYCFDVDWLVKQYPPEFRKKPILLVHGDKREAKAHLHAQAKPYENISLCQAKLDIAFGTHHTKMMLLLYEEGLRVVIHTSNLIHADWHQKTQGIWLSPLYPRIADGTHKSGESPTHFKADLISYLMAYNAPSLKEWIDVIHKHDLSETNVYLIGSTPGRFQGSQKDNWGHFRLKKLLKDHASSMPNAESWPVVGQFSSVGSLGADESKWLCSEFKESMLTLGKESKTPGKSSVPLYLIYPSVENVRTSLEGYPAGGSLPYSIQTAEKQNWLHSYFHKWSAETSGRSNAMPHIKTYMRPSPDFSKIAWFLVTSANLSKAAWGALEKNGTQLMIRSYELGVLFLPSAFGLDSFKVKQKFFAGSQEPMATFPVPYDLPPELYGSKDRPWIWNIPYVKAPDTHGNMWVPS

For the compound `COc1cc2c(cc1OC)-c1ccc3cc4c(cc3c1N(CCN(C)C)C2)OCO4` [Compound 26a, 2-(2,3-Dimethoxy-[1,3]dioxolo[4′,5′:4,5]benzo[1,2-c]phenanthridin-12(131)-yl)-N,N-dimethylethan-1-amine], the GI50 in the data set on Huh7 is 7.78 ± 2.91 µM; in the data set on DU145 it was 1.93 ± 0.41 µM; in the data set with A549 it was 6.68 ± 1.93 µM; in the data set on HCT116, 7.36 ± 3.55 µM; in the data set on CCRF-CEM it was 0.95 ± 0.14 µM. The TOP1 inhibition entry on Top1 is “+ (+, between 20% and 50% activity)”. For the same compound, the “GI50 (μM) CCRF-CEM” value with CCRF-CEM is recorded as “submicromolar concentration”. At Tdp1 [1], this compound displayed a TDP1 inhibition of 0%. Moreover, in the data set with F10T dsDNA, the “ΔTm (°C.) F10T” value is 1.0 °C.
For `COc1cc2c(cc1OC)-c1ccc3cc4c(cc3c1N(CCN1CCCC1)C2)OCO4` [Compound 28a, 2,3-Dimethoxy-12-(2-(pyrrolidin-1-yl)ethyl)-12,13-dihydro-[1,3]dioxolo[4′,5′:4,5]benzo[1,2-c]phenanthrdine], the concentration for 50% growth inhibition (GI50) was 8.07 ± 1.3 µM in the data set on Huh7; 2.04 ± 0.41 µM with DU145; 6.59 ± 1.29 µM in the data set on A549; 4.25 ± 3.11 µM with HCT116; 1.25 ± 0.18 µM in the data set on CCRF-CEM. Besides, on Tdp1 [1], the TDP1 inhibition is 0%.
As for `[Na+].[Na+].[Na+].[O]=[V]([O-])([O-])[O-]` [sodium orthovanadate], the Tdp1 inhibition result at Tdp1 [2] is on record as “inhibition only at millimolar concentration”.
Regarding `COc1cc2c(=O)n(CCN(C)C)c3c4cc5c(cc4ccc3c2cc1OC)OCO5` [Compound 19a, 12-(2-(Dimethylamino)ethyl)-2,3-dimethoxy-[1,3]dioxolo[4′,5′:4,5]benzo[1,2-c]phenanthridin-13(12H)-one], in the data set with HCT116 cells, the induction of apoptosis result was “significantly induce HCT116 cells apoptosis in a dose-dependent manner”. Further, the γH2AX foci entry in [3] is listed as “γH2AX foci were induced”. Also, the body weight result in the data set on HCT116 xenograft (5 mg/kg i.p. daily) is listed as “no obvious body loss”; in the data set on HCT116 xenograft (10 mg/kg i.p. daily) it was “Body weight loss was found”. Further, in the data set with HCT116 xenograft (i.p. once every day), the tumor volume result is on record as “significantly reduced tumor volume in a dose-dependent manner”. Moreover, the Top1-mediated unwinding effect entry with pBR322 DNA is listed as “no Top1-mediated unwinding effect”. Also, in data set [4], the “Tmax” value turned out to be 1.17 ± 0.76 h.

One may read the GI50 as the concentration at which growth is held to half of that of the control. What is called Tmax is the time at which the peak concentration occurs.
